{"source": "patent US20240382494A1", "about": "“THERAPEUTIC COMPOUNDS” (priority 2023, published 2024)", "key": {"SARS-CoV-2 PLpro": {"target": "SARS-CoV-2 PLpro (Severe acute respiratory syndrome coronavirus 2, UniProt P0DTD1)", "test": "FRET-based PLpro enzymatic assay", "format": "biochemical", "procedure": "The SARS-CoV-2 PL^pro enzymatic assays were carried out as follows. The assay was assembled in 96-well plates with 100 μl of 200 nM PL^Pro protein in PL^Pro reaction buffer [50 mM Hepes (pH 7.5), 0.01% Triton X-100, and 5 mM DTT]. Then, 1 μl of testing compound at various concentrations was added to each well and incubated at 30° C. for 30 minutes. The enzymatic reaction was initiated by adding 1 μl of 1 mM FRET substrate (the final substrate concentration is 10 μM). The reaction was monitored in a Cytation 5 image reader with filters for excitation at 360/40 nm and emission at 460/40 nm at 30° C. for 1 hour. The initial velocity of the enzymatic reaction with and without testing compounds was calculated by linear regression for the first 15 minutes of the kinetic progress curve. The IC50 values were calculated by plotting the initial velocity against various concentrations of testing compounds with a dose-response function in Prism 8 software."}, "[1]": {"test": "Cytotoxicity assay in Vero E6 cells (neutral red uptake)", "format": "cell-based", "conditions": "African green monkey", "procedure": "Briefly, 80.000 cells/ml of the tested cell lines were dispensed into 96-well cell culture plates at 100 μl per well Twenty-four hours later, the growth medium was removed and washed with 150 μl of PBS buffer. Two hundred microliters of fresh serum-free medium containing serial diluted compounds was added to each well. After incubating for 2 days at 37° C., the medium was removed and replaced with 100 μl of DMEM medium containing neutral red (40 μg/ml) and incubated for 2 to 4 hours at 37° C. The amount of neutral red taken up was determined by measuring the absorbance at 540 nm using a Multiskan FC Microplate Photometer (Thermo Fisher Scientific) The CC50 values were calculated from best-fit dose-response curves with variable slope in Prism 8."}, "[2]": {"conditions": "200 nM PLpro, 10 μM FRET substrate, 30 min preincubation at 30° C., read-out: IC50"}, "[3]": {"conditions": "Vero E6 cells, 2 days at 37° C., neutral red uptake, read-out: Vero CC50"}}, "note": "Like-named read-outs stand apart in the source and are kept apart here.", "data": [{"molecule": "Cc1ccc(OCCN(C)C)cc1C(=O)N[C@H](C)c1cc(-c2cnn(C3CCC3)c2)nc2ccccc12", "note": "[Example 64, (R)—N-(1-(2-(1-cyclobutyl-1H-pyrazol-4-yl)quinolin-4-yl)ethyl)-5-(2-(dimethylamino)ethoxy)-2-methylbenzamide]", "values": [{"measurement": "IC50", "setting": "SARS-CoV-2 PLpro; [2]", "value": "< 0.5", "unit": "µM"}, {"measurement": "CC50 at 2 days", "setting": "[1]; [3]", "value": "25.3 ± 5.82", "unit": "µM"}]}, {"molecule": "Cc1ccc(OC[C@@H]2CCN2C)cc1C(=O)NC1(c2cc(-c3cnn(C)c3)nc3ccccc23)CC1", "note": "[Example 115, (S)-2-methyl-N-(1-(2-(1-methyl-1H-pyrazol-4-yl)quinolin-4-yl)cyclopropyl)-5-((1-methylazetidin-2-yl)methoxy)benzamide]", "values": [{"measurement": "IC50", "setting": "SARS-CoV-2 PLpro; [2]", "value": "< 0.5", "unit": "µM"}, {"measurement": "CC50 at 2 days", "setting": "[1]; [3]", "value": "127 ± 7.89", "unit": "µM"}]}, {"molecule": "Cc1ccc(OCCN(C)C)cc1C(=O)N[C@H](C)c1cc(Cl)nc2ccccc12", "note": "[Example 11, (R)—N-(1-(2-chloroquinolin-4-yl)ethyl)-5-(2-(dimethylamino)-ethoxy)-2-methylbenzamide]", "values": [{"measurement": "IC50", "setting": "SARS-CoV-2 PLpro; [2]", "value": "0.5 to 1", "unit": "µM"}, {"measurement": "CC50 at 2 days", "setting": "[1]; [3]", "value": "101 ± 11.3", "unit": "µM"}]}, {"molecule": "Cc1ccc(C2=CCN(C)CC2)cc1C(=O)N[C@H](C)c1cc(-c2cnn(C)c2)nc2ccccc12", "note": "[Example 86, (R)-2-methyl-5-(1-methyl-1,2,3,6-tetrahydropyridin-4-yl)-N-(1-(2-(1-methyl-1H-pyrazol-4-yl)quinolin-4-yl)ethyl)benzamide]", "values": [{"measurement": "IC50", "setting": "SARS-CoV-2 PLpro; [2]", "value": "1 to 5", "unit": "µM"}, {"measurement": "CC50 at 2 days", "setting": "[1]; [3]", "value": "92.7 ± 4.59", "unit": "µM"}]}, {"molecule": "CCn1ccc(-c2cc([C@@H](C)NC(=O)c3cc(N4CCN(C)[C@H](C)C4)ccc3C)c3ccccc3n2)n1", "note": "[Example 104, 5-((R)-3,4-dimethylpiperazin-1-yl)-N—((R)-1-(2-(1-ethyl-1H-pyrazol-3-yl)quinolin-4-yl)ethyl)-2-methylbenzamide]", "values": [{"measurement": "IC50", "setting": "SARS-CoV-2 PLpro; [2]", "value": "< 0.5", "unit": "µM"}, {"measurement": "CC50 at 2 days", "setting": "[1]; [3]", "value": "30.5 ± 2.21", "unit": "µM"}]}, {"molecule": "Cc1ccc(OCCN(C)C)cc1C(=O)N[C@H](C)c1cc(-c2ccco2)nc2ccccc12", "note": "[Example 4, (R)5-(2-(dimethylamino)ethoxy)-N-(1-(2-(furan-2-yl)quinolin-4-yl)ethyl)-2-methylbenzamide]", "values": [{"measurement": "IC50", "setting": "SARS-CoV-2 PLpro; [2]", "value": "< 0.5", "unit": "µM"}, {"measurement": "CC50 at 2 days", "setting": "[1]; [3]", "value": "57.3 ± 20.4", "unit": "µM"}]}, {"molecule": "Cc1ccc(N2CC(N(C)C)C2)cc1C(=O)N[C@H](C)c1cc(-c2cnn(C)c2)nc2ccccc12", "note": "[Example 95, (R)-5-(3-(dimethylamino)azetidin-1-yl)-2-methyl-N-(1-(2-(1-methyl-1H-pyrazol-4-yl)quinolin-4-yl)ethyl)benzamide]", "values": [{"measurement": "IC50", "setting": "SARS-CoV-2 PLpro; [2]", "value": "0.5 to 1", "unit": "µM"}, {"measurement": "CC50 at 2 days", "setting": "[1]; [3]", "value": "311 ± 21.1", "unit": "µM"}]}, {"molecule": "CCn1ccc(-c2cc([C@@H](C)NC(=O)c3cc(N4CC5CCC(C4)N5C)ccc3C)c3ccccc3n2)n1", "note": "[Example 106, N—((R)-1-(2-(1-ethyl-1H-pyrazol-3-yl)quinolin-4-yl)ethyl)-2-methyl-5-(8-methyl-3,8-diazabicyclo[3.2.1]octan-3-yl)benzamide]", "values": [{"measurement": "IC50", "setting": "SARS-CoV-2 PLpro", "value": "< 0.5", "unit": "µM"}, {"measurement": "CC50 at 2 days", "setting": "[1]", "value": "31.3 ± 7.45", "unit": "µM"}]}, {"molecule": "Cc1ccc(OCCN(C)C)cc1C(=O)N[C@H](C)c1cc(-c2cncn2C)nc2ccccc12", "note": "[Example 66, (R)-5-(2-(dimethylamino)ethoxy)-2-methyl-N-(1-(2-(1-methyl-1H-imidazol-5-yl)quinolin-4-yl)ethyl)benzamide]", "values": [{"measurement": "IC50", "setting": "SARS-CoV-2 PLpro; [2]", "value": "< 0.5", "unit": "µM"}, {"measurement": "CC50 at 2 days", "setting": "[1]; [3]", "value": "79.5 ± 8.62", "unit": "µM"}]}, {"molecule": "Cc1ccc(N2CC[C@@H](N(C)C)C2)cc1C(=O)N[C@H](C)c1cc(-c2ccn(C)n2)nc2ccccc12", "note": "[Example 100, 5-((R)-3-(dimethylamino)pyrrolidin-1-yl)-2-methyl-N—((R)-1-(2-(1-methyl-1H-pyrazol-3-yl)quinolin-4-yl)ethyl)benzamide]", "values": [{"measurement": "IC50", "setting": "SARS-CoV-2 PLpro; [2]", "value": "< 0.5", "unit": "µM"}, {"measurement": "CC50 at 2 days", "setting": "[1]; [3]", "value": "30.6 ± 1.72", "unit": "µM"}]}, {"molecule": "Cc1ccc(OCCN(C)C)cc1C(=O)N[C@@H](C)c1cc(-c2cnn(C(F)F)c2)nc2ccccc12", "note": "[Example 18]", "values": [{"measurement": "IC50", "setting": "SARS-CoV-2 PLpro; [2]", "value": "0.5 to 1", "unit": "µM"}, {"measurement": "CC50 at 2 days", "setting": "[1]; [3]", "value": "47.1 ± 6.43", "unit": "µM"}]}, {"molecule": "Cc1ccc(OCCN(C)C)cc1C(=O)N[C@H](C)c1cc(-c2ccc3c(c2)OC(F)(F)O3)nc2ccccc12", "note": "[Example 56, (R)—N-(1-(2-(2,2-difluorobenzo[d][1,3]dioxol-5-yl)quinolin-4-yl)ethyl)-5-(2-(dimethylamino)ethoxy)-2-methylbenzamid]", "values": [{"measurement": "IC50", "setting": "SARS-CoV-2 PLpro; [2]", "value": "< 0.5", "unit": "µM"}, {"measurement": "CC50 at 2 days", "setting": "[1]; [3]", "value": "15.2 ± 7.09", "unit": "µM"}]}, {"molecule": "Cc1ccc(N2CCN(C)CC2)cc1C(=O)N[C@H](C)c1cc(-c2ccn(C)n2)nc2ccccc12", "note": "[Example 97, (R)-2-methyl-N-(1-(2-(1-methyl-1H-pyrazol-3-yl)quinolin-4-yl)ethyl)-5-(4-methylpiperazin-1-yl)benzamide]", "values": [{"measurement": "IC50", "setting": "SARS-CoV-2 PLpro; [2]", "value": "< 0.5", "unit": "µM"}, {"measurement": "CC50 at 2 days", "setting": "[1]; [3]", "value": "30.7 ± 2.45", "unit": "µM"}]}, {"molecule": "Cc1ccc(OCCN(C)C)cc1C(=O)N[C@H](C)c1cc(-c2cnn(C(F)(F)F)c2)nc2ccccc12", "note": "[Example 63, (R)-5-(2-(dimethylamino)ethoxy)-2-methyl-N-(1-(2-(1-(trifluoro-methyl)-1H-pyrazol-4-yl)quinolin-4-yl)ethyl)benzamide]", "values": [{"measurement": "IC50", "setting": "SARS-CoV-2 PLpro; [2]", "value": "< 0.5", "unit": "µM"}, {"measurement": "CC50 at 2 days", "setting": "[1]; [3]", "value": "17.7 ± 2.04", "unit": "µM"}]}, {"molecule": "Cc1ccc(OCCN(C)C)cc1C(=O)N[C@H](C)c1cc(-c2cnn(CC(=O)N3CCCC3)c2)nc2ccccc12", "note": "[Example 69, (R)-5-(2-(dimethylamino)ethoxy)-2-methyl-N-(1-(2-(1-(2-oxo-2-(pyrrolidin-1-yl)ethyl)-1H-pyrazol-4-yl)quinolin-4-yl)ethyl)benzamide]", "values": [{"measurement": "IC50", "setting": "SARS-CoV-2 PLpro; [2]", "value": "< 0.5", "unit": "µM"}, {"measurement": "CC50 at 2 days", "setting": "[1]; [3]", "value": "26.4 ± 4.5", "unit": "µM"}]}, {"molecule": "Cc1ccc(OCCN(C)C)cc1C(=O)N[C@H](C)c1cc(-c2cnn(CC(N)=O)c2)nc2ccccc12", "note": "[Example 24, (R)—N-(1-(2-(1-(2-amino-2-oxoethyl)-1H-pyrazol-4-yl)quinolin-4-yl)ethyl)-5-(2-(dimethylamino)ethoxy)-2-methylbenzamide]", "values": [{"measurement": "IC50", "setting": "SARS-CoV-2 PLpro; [2]", "value": "< 0.5", "unit": "µM"}, {"measurement": "CC50 at 2 days", "setting": "[1]; [3]", "value": "> 250", "unit": "µM"}]}, {"molecule": "Cc1ccc(OC[C@@H]2CCCN2C)cc1C(=O)N[C@H](C)c1cc(-c2ccn(C)n2)nc2ccccc12", "note": "[Example 98, 2-methyl-N—((R)-1-(2-(1-methyl-1H-pyrazol-3-yl)quinolin-4-yl)ethyl)-5-(((S)-1-methylpyrrolidin-2-yl)methoxy)benzamide]", "values": [{"measurement": "IC50", "setting": "SARS-CoV-2 PLpro; [2]", "value": "< 0.5", "unit": "µM"}, {"measurement": "CC50 at 2 days", "setting": "[1]; [3]", "value": "18.8 ± 1.49", "unit": "µM"}]}, {"molecule": "CCn1ccc(-c2cc([C@@H](C)NC(=O)c3cc(N4C[C@H]5C[C@@H]4CN5C)ccc3C)c3ccccc3n2)n1", "note": "[Example 107, N—((R)-1-(2-(1-ethyl-1H-pyrazol-3-yl)quinolin-4-yl)ethyl)-2-methyl-5-((1R,4R)-5-methyl-2,5-diazabicyclo[2.2.1]heptan-2-yl)benzamide]", "values": [{"measurement": "IC50", "setting": "SARS-CoV-2 PLpro; [2]", "value": "< 0.5", "unit": "µM"}, {"measurement": "CC50 at 2 days", "setting": "[1]; [3]", "value": "22.3 ± 1.39", "unit": "µM"}]}, {"molecule": "Cc1ccc(OCCN(C)C)cc1C(=O)N[C@H](C)c1cc(-c2cnn(C3CC3)c2)nc2ccccc12", "note": "[Example 8, (R)—N-(1-(2-(1-cyclopropyl-1H-pyrazol-4-yl)quinolin-4-yl)ethyl)-5-(2-(dimethylamino)ethoxy)-2-methylbenzamide]", "values": [{"measurement": "IC50", "setting": "SARS-CoV-2 PLpro; [2]", "value": "< 0.5", "unit": "µM"}, {"measurement": "CC50 at 2 days", "setting": "[1]; [3]", "value": "63.1 ± 8.7", "unit": "µM"}]}, {"molecule": "Cc1ccc(N2C[C@H]3CN(C)C[C@H]3C2)cc1C(=O)N[C@H](C)c1cc(-c2ccn(C)n2)nc2ccccc12", "note": "[Example 103, 2-methyl-N—((R)-1-(2-(1-methyl-1H-pyrazol-3-yl)quinolin-4-yl)ethyl)-5-((3aR,6aS)-5-methylhexahydropyrrolo[3,4-c]pyrrol-2(1H)-yl)benzamide]", "values": [{"measurement": "IC50", "setting": "SARS-CoV-2 PLpro; [2]", "value": "< 0.5", "unit": "µM"}, {"measurement": "CC50 at 2 days", "setting": "[1]; [3]", "value": "27.3 ± 1.74", "unit": "µM"}]}, {"molecule": "Cc1ccc(OCCN(C)C)cc1C(=O)N[C@H](C)c1cc(OCc2c(F)c(F)c(F)c(F)c2F)nc2ccccc12", "note": "[Example 58, (R)-5-(2-(dimethylamino)ethoxy)-2-methyl-N-(1-(2-((perfluorophenyl)methoxy)quinolin-4-yl)ethyl)benzamide]", "values": [{"measurement": "IC50", "setting": "SARS-CoV-2 PLpro; [2]", "value": "> 5", "unit": "µM"}, {"measurement": "CC50 at 2 days", "setting": "[1]; [3]", "value": "> 50", "unit": "µM"}]}]}
